Measured values as given in patent US10370433B2, “Compositions and methods for diagnosis and treatment of cancer” (BIONTECH AG, priority 2015, dated 2019).
Positions of bridges follow the written chain, without caps; N, C: chain ends. Residues, ends and D or L forms follow the SMILES beside them.

Experiments:
DPP IV = biological target: T1, DPP IV (Homo sapiens, UniProt P27487); assay type: binding
T1 construct: purchased R&D Systems

[1] = biological target: T2, recombinant human Seprase (rhuSeprase) (Homo sapiens, UniProt Q12884); assay: Surface plasmon resonance (Biacore T100) on immobilized rhuSeprase; assay type: binding
T2 construct: named pCEP4-IgKappa-huSeprase-coCHO_26-760aa-H6 and used for the generation of recombinant soluble human Seprase (rhuSeprase); mouse Ig kappa-chain V-J2-C secretion signal (N, cleaved yes); made in house; host or cells: FreeStyle CHO-S cells (transient transfection; purified from supernatant by Ni-chelate and SEC)
T2 sequence (Q12884 26-760): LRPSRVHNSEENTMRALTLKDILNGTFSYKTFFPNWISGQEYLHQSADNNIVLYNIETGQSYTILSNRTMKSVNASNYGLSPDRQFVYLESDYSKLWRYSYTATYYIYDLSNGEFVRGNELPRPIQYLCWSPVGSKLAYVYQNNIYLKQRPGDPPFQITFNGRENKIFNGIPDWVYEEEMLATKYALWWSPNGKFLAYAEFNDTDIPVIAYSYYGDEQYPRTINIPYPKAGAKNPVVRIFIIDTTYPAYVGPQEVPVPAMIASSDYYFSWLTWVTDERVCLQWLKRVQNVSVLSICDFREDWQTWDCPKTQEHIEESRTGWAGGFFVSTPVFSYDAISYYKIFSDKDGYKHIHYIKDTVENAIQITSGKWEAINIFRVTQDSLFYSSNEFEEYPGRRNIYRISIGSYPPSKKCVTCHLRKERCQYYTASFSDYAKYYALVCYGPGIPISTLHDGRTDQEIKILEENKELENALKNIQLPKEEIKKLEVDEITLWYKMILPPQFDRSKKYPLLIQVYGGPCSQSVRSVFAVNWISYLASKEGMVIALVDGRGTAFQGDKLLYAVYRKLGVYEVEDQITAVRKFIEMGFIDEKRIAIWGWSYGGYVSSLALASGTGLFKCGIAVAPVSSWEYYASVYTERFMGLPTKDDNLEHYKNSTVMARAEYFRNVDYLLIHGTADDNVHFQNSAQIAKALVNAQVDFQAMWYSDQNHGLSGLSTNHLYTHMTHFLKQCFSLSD

[2] = biological target: T3, murine Seprase expressing tumor cells (CAFs in CT26 tumor sections) (Mus musculus, UniProt P97321); assay: Staining of paraffin sections of CT26 tumors
T3 construct: from tissue; host or cells: paraffin sections of subcutaneous CT26 tumors grown in BALB/c mice (stromal CAFs)
T3 sequence (P97321 1-761): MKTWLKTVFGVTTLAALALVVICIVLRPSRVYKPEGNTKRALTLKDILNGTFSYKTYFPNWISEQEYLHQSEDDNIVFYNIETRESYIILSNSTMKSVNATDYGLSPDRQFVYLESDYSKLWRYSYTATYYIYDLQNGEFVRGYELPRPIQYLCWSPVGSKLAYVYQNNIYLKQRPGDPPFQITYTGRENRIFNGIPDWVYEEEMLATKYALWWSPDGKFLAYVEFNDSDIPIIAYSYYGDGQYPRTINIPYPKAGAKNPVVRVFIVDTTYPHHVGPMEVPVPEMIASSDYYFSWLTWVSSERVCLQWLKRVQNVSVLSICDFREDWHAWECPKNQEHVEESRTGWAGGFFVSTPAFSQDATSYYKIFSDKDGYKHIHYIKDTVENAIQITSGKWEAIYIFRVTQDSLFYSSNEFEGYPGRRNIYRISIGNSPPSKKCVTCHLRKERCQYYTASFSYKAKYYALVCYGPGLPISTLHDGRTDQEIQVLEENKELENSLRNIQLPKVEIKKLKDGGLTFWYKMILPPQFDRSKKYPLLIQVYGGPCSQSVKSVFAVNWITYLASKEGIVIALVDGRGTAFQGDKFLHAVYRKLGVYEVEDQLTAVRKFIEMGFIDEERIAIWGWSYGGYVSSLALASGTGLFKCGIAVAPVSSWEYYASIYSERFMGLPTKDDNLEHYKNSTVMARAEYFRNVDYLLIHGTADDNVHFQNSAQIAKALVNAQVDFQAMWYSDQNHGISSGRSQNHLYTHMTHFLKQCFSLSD

[3] = biological target: T4, murine homologue of Seprase (Mus musculus, UniProt P97321); assay type: cell-based
T4 construct: expressed in transfected cells; host or cells: CHO-K1
T4 sequence (P97321 1-761): T3 sequence (P97321 1-761)

human Seprase [4] = biological target: T5, human Seprase (Homo sapiens, UniProt Q12884)
T5 sequence (Q12884 26-760): T2 sequence (Q12884 26-760)

human Seprase [5] = biological target: T5, human Seprase; assay type: binding; design: named pCEP4-IgKappa-huSeprase-coCHO_26-760aa-H6 and used for the generation of recombinant soluble human Seprase (rhuSeprase); mouse Ig kappa-chain V-J2-C secretion signal (N, cleaved yes); made in house; host or cells: FreeStyle CHO-S cells (transient transfection; purified from supernatant by Ni-chelate and SEC)

T1 sequence (P27487 whole entry): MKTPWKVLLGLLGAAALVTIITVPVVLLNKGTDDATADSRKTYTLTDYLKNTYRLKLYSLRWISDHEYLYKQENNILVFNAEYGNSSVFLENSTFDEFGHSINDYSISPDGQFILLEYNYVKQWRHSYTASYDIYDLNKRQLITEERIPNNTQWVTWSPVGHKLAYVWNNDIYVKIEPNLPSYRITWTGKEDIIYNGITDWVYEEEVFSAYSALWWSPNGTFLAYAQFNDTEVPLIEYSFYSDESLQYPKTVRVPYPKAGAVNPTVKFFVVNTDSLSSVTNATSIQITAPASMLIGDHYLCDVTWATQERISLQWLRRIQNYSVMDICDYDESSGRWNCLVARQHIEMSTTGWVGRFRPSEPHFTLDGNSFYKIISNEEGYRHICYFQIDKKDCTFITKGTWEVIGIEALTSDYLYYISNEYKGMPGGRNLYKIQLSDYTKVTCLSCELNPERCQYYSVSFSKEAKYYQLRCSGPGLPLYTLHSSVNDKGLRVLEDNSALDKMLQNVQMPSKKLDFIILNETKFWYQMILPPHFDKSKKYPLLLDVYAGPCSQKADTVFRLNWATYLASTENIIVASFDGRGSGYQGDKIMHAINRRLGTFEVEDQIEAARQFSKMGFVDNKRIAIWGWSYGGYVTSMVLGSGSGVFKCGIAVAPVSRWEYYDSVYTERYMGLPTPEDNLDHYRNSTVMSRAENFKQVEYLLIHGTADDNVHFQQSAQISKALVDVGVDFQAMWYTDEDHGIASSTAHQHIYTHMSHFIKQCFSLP

## CC[C@H](C)[C@@H]1NC(=O)[C@@H]2CSSC[C@H](NC(=O)[C@H](CCCCN)NC(=O)CN)C(=O)N3CCC[C@H]3C(=O)N[C@@H](Cc3ccc(O)cc3)C(=O)N[C@@H](CO)C(=O)N[C@@H](CC(N)=O)C(=O)N[C@@H](Cc3c[nH]c4ccccc34)C(=O)N[C@@H]([C@@H](C)O)C(=O)N3CCC[C@H]3C(=O)NCC(=O)N[C@@H](CCCNC(=N)N)C(=O)NCC(=O)N3CCC[C@H]3C(=O)N[C@@H](CC(=O)O)C(=O)N[C@H]3CSSC[C@H](NC1=O)C(=O)N[C@@H](CCCNC(=N)N)C(=O)NCC(=O)N[C@@H](CC(N)=O)C(=O)NCC(=O)N[C@@H](Cc1ccc(O)cc1)C(=O)N[C@H](C(=O)NCC(=O)O)CSSC[C@H](NC(=O)[C@H](CC(=O)O)NC(=O)[C@H](CO)NC(=O)[C@H](CC(=O)O)NC(=O)[C@H](CCCNC(=N)N)NC(=O)[C@H](CCCNC(=N)N)NC3=O)C(=O)N1CCC[C@H]1C(=O)NCC(=O)N[C@@H](CCCNC(=N)N)C(=O)N2 [MC-FA-010] (H-GKCPYSNWTPGRGPDCRRDSDCPGRCICRGNGYCG-OH; disulfide 3-26, 16-28, 22-34)
DPP IV
  binding to DPP IV: very weak signal
[1]
  kd: 0.2006 s⁻¹
[1]; read-out: ka (1/Ms)
  kon: 1.53e+06 M⁻¹ s⁻¹
[2]
  binding to CT26 tumor section: binds on CAFs
[3]
  cross-reactivity with the murine homologue: cross-reactive
Human Seprase [4]
  IC50, binding affinity to human Seprase: nanomolar range
Human Seprase [5]
  EC50, binding affinity to human Seprase: nanomolar range
  binding to Seprase: binds strongly and selectively
